Reference: ChEMBL document CHEMBL1201862, “PubChem BioAssay data set” (2004)
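Cultured in 96-well plates, cells were exposed to test compound for 48 hours across five concentrations. GI50 = concentration required for 50% inhibition of growth.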 Calls of active or inactive are those of the source. Cut-off read from the data, not from the text of the source: active = GI50 up to about 1.1 µM and inactive = higher.

Key:
Assay in all cases: NCI-60 cell line screen, 48 h
SNB-75 = test system: SNB-75
EKVX = test system: EKVX
HOP-62 = test system: HOP-62
LOX IMVI = test system: LOX IMVI
A549 = test system: A549
K562 = test system: K562
RPMI-8226 = test system: RPMI-8226
HL-60 = test system: HL-60
CCRF-CEM = test system: CCRF-CEM
IGROV-1 = test system: IGROV-1
HCT-116 = test system: HCT-116
SK-OV-3 = test system: SK-OV-3
HCC 2998 = test system: HCC 2998
CAKI-1 = test system: CAKI-1
KM12 = test system: KM12
TK-10 = test system: TK-10
SR = test system: SR
ACHN = test system: ACHN
M14 = test system: M14

SMILES | GI50 (SNB-75) | GI50 (EKVX) | GI50 (HOP-62) | GI50 (LOX IMVI) | GI50 (A549) | GI50 (K562) | GI50 (RPMI-8226) | GI50 (HL-60) | GI50 (CCRF-CEM) | GI50 (IGROV-1) | GI50 (HCT-116) | GI50 (SK-OV-3) | GI50 (HCC 2998) | GI50 (CAKI-1) | GI50 (KM12) | GI50 (TK-10) | GI50 (SR) | GI50 (ACHN) | GI50 (M14)
O=C1CCCn2c3ccccc3c3ccnc1c32 | 34.3 µM (inactive) | 12.2 µM (inactive) | 43.1 µM (inactive) | 36.1 µM (inactive) | 44.6 µM (inactive) | 40.5 µM (inactive) | 23.6 µM (inactive) | 6.89 µM (inactive) | 27.8 µM (inactive) | 34.2 µM (inactive) | 30.1 µM (inactive) | 44.7 µM (inactive) | 41.4 µM (inactive) | 17.3 µM (inactive) | 62.1 µM (inactive) | – | – | – | –
Nc1cc2c(cc1[N+](=O)[O-])[nH]c1c(-c3ccccc3)nccc12 | 19.2 µM (inactive) | 21.7 µM (inactive) | 15.2 µM (inactive) | 13.6 µM (inactive) | 17.4 µM (inactive) | 7.57 µM (inactive) | 8.24 µM (inactive) | 11.8 µM (inactive) | 7.71 µM (inactive) | 8.65 µM (inactive) | 15.3 µM (inactive) | 10.9 µM (inactive) | 13.2 µM (inactive) | – | 15.8 µM (inactive) | – | – | – | –
Cc1cc(O)nc(NN2C(Cl)C(=O)C2c2cccc(O)c2)n1 (stereo unspecified) | 1.64 µM (inactive) | 17.9 µM (inactive) | 4.49 µM (inactive) | 4.53 µM (inactive) | 4.44 µM (inactive) | 2.7 µM (inactive) | 9.59 µM (inactive) | 4.26 µM (inactive) | 4.63 µM (inactive) | 4.8 µM (inactive) | 2.87 µM (inactive) | – | 15.1 µM (inactive) | – | 7.1 µM (inactive) | 42.5 µM (inactive) | 4.11 µM (inactive) | 4.61 µM (inactive) | 7.13 µM (inactive)
CCOC(=O)C(NC(=O)c1ccccc1)(Nc1ccc(S(=O)(=O)Nc2cc(C)nc(C)n2)cc1)C(F)(F)F (stereo unspecified) | > 100 µM (inactive) | > 100 µM (inactive) | > 100 µM (inactive) | > 100 µM (inactive) | > 100 µM (inactive) | > 100 µM (inactive) | > 100 µM (inactive) | > 100 µM (inactive) | > 100 µM (inactive) | > 100 µM (inactive) | > 100 µM (inactive) | – | – | > 100 µM (inactive) | > 100 µM (inactive) | > 100 µM (inactive) | > 100 µM (inactive) | > 100 µM (inactive) | > 100 µM (inactive)
COc1ccc(/C(=N\NC(=O)NN)C(c2ccc(OC)cc2)C2(O)C(=O)Nc3c(Cl)cc(Cl)cc32)cc1 (stereo unspecified) | > 100 µM (inactive) | > 100 µM (inactive) | > 100 µM (inactive) | 99.3 µM (inactive) | > 100 µM (inactive) | – | 56.8 µM (inactive) | 13.8 µM (inactive) | 13.8 µM (inactive) | > 100 µM (inactive) | 56.8 µM (inactive) | – | > 100 µM (inactive) | – | > 100 µM (inactive) | > 100 µM (inactive) | – | > 100 µM (inactive) | > 100 µM (inactive)
Cc1cccc2c1C(=O)OC2(c1cccc2ccccc12)c1cccc2ccccc12 | 21.3 µM (inactive) | > 100 µM (inactive) | 27.4 µM (inactive) | > 100 µM (inactive) | > 100 µM (inactive) | > 100 µM (inactive) | – | > 100 µM (inactive) | > 100 µM (inactive) | > 100 µM (inactive) | > 100 µM (inactive) | > 100 µM (inactive) | > 100 µM (inactive) | > 100 µM (inactive) | > 100 µM (inactive) | > 100 µM (inactive) | > 100 µM (inactive) | 63.5 µM (inactive) | > 100 µM (inactive)
CCN(CC)C(=S)SS(C)(=O)=O | 29.6 µM (inactive) | 37.2 µM (inactive) | 18.7 µM (inactive) | 13.6 µM (inactive) | – | < 0.01 µM (active) | – | 5.12 µM (inactive) | – | > 100 µM (inactive) | 26.4 µM (inactive) | 75.7 µM (inactive) | – | 22.4 µM (inactive) | 17.1 µM (inactive) | 18.3 µM (inactive) | – | 16.7 µM (inactive) | 18.2 µM (inactive)
CCOC(=O)C12CC1(C(=O)OCC)C1CCC2C1 (stereo unspecified) | – | – | > 100 µM (inactive) | > 100 µM (inactive) | > 100 µM (inactive) | 68.5 µM (inactive) | > 100 µM (inactive) | 71.6 µM (inactive) | > 100 µM (inactive) | > 100 µM (inactive) | > 100 µM (inactive) | > 100 µM (inactive) | > 100 µM (inactive) | > 100 µM (inactive) | – | > 100 µM (inactive) | 49.9 µM (inactive) | > 100 µM (inactive) | > 100 µM (inactive)
COc1ccc(C2=CC(c3ccccc3)n3nnnc3N2)cc1 (stereo unspecified) | – | – | 40.6 µM (inactive) | > 100 µM (inactive) | > 100 µM (inactive) | > 100 µM (inactive) | 7.14 µM (inactive) | > 100 µM (inactive) | > 100 µM (inactive) | > 100 µM (inactive) | > 100 µM (inactive) | > 100 µM (inactive) | – | > 100 µM (inactive) | > 100 µM (inactive) | – | > 100 µM (inactive) | > 100 µM (inactive) | > 100 µM (inactive)
O=P1(Oc2ccc(Cl)cc2Cl)Oc2ccc3ccccc3c2-c2c(ccc3ccccc23)O1 | 31.5 µM (inactive) | 25.4 µM (inactive) | 20.2 µM (inactive) | 24 µM (inactive) | 49 µM (inactive) | 31.4 µM (inactive) | 18.2 µM (inactive) | 22.9 µM (inactive) | 28 µM (inactive) | 26.9 µM (inactive) | 26.5 µM (inactive) | 59.7 µM (inactive) | 24.9 µM (inactive) | 21 µM (inactive) | 32.9 µM (inactive) | – | – | – | –
O/N=C1/C(=C/c2ccc(F)cc2)CCCC1C(NO)c1ccc(F)cc1 (stereo unspecified) | 50.1 µM (inactive) | 38.9 µM (inactive) | > 100 µM (inactive) | – | 32.9 µM (inactive) | 29.1 µM (inactive) | 20.8 µM (inactive) | 25.1 µM (inactive) | 33.2 µM (inactive) | 89.1 µM (inactive) | 30 µM (inactive) | > 100 µM (inactive) | 35.6 µM (inactive) | 62.7 µM (inactive) | 22.3 µM (inactive) | 71.4 µM (inactive) | – | > 100 µM (inactive) | 32.8 µM (inactive)
COC(=O)C1=C(C)N(NC(=O)c2ccccc2)C2(O)CCCC(=O)C12C (stereo unspecified) | 63.5 µM (inactive) | – | – | > 100 µM (inactive) | > 100 µM (inactive) | – | > 100 µM (inactive) | – | – | > 100 µM (inactive) | > 100 µM (inactive) | > 100 µM (inactive) | – | > 100 µM (inactive) | > 100 µM (inactive) | > 100 µM (inactive) | – | > 100 µM (inactive) | > 100 µM (inactive)
CC(=O)OCC1OC(Nc2nc(O)n(C)c(=O)c2-c2csc(N)n2)C(OC(C)=O)C(OC(C)=O)C1OC(C)=O (stereo unspecified) | > 100 µM (inactive) | – | > 100 µM (inactive) | > 100 µM (inactive) | > 100 µM (inactive) | > 100 µM (inactive) | > 100 µM (inactive) | 70 µM (inactive) | 67.6 µM (inactive) | > 100 µM (inactive) | > 100 µM (inactive) | > 100 µM (inactive) | – | > 100 µM (inactive) | > 100 µM (inactive) | > 100 µM (inactive) | > 100 µM (inactive) | > 100 µM (inactive) | > 100 µM (inactive)
CC(=O)OCc1ncccc1C(OC(C)=O)OC(C)=O | > 100 µM (inactive) | > 100 µM (inactive) | > 100 µM (inactive) | > 100 µM (inactive) | > 100 µM (inactive) | > 100 µM (inactive) | – | > 100 µM (inactive) | > 100 µM (inactive) | > 100 µM (inactive) | > 100 µM (inactive) | > 100 µM (inactive) | – | > 100 µM (inactive) | > 100 µM (inactive) | > 100 µM (inactive) | > 100 µM (inactive) | > 100 µM (inactive) | > 100 µM (inactive)
COc1nc2[nH]ccc2c(=O)n1C | > 100 µM (inactive) | > 100 µM (inactive) | – | > 100 µM (inactive) | > 100 µM (inactive) | > 100 µM (inactive) | > 100 µM (inactive) | > 100 µM (inactive) | > 100 µM (inactive) | > 100 µM (inactive) | > 100 µM (inactive) | – | – | 24.3 µM (inactive) | > 100 µM (inactive) | > 100 µM (inactive) | > 100 µM (inactive) | > 100 µM (inactive) | > 100 µM (inactive)
CCOC(=O)C1(C(=O)OCC)COS(=O)OC1 | 79.1 µM (inactive) | – | – | 13.2 µM (inactive) | > 100 µM (inactive) | 21.4 µM (inactive) | – | – | 10.6 µM (inactive) | – | 17.4 µM (inactive) | > 100 µM (inactive) | 47.6 µM (inactive) | – | 28.7 µM (inactive) | > 100 µM (inactive) | 17.8 µM (inactive) | 32.6 µM (inactive) | > 100 µM (inactive)
Cn1cnc([N+](=O)[O-])c1Sc1nccc(O)n1 | > 100 µM (inactive) | > 100 µM (inactive) | > 100 µM (inactive) | > 100 µM (inactive) | > 100 µM (inactive) | > 100 µM (inactive) | > 100 µM (inactive) | – | > 100 µM (inactive) | > 100 µM (inactive) | > 100 µM (inactive) | > 100 µM (inactive) | > 100 µM (inactive) | > 100 µM (inactive) | > 100 µM (inactive) | > 100 µM (inactive) | > 100 µM (inactive) | > 100 µM (inactive) | > 100 µM (inactive)
